Results as given in ChEMBL document CHEMBL4819130 (Bioorg Med Chem, 2021).
pIC50: −log10 of the molar value. Activity calls are given as the source filed them. The calls are words filed in the database; no cut-off is given here.

Tests used:
Cocaine esterase = molecular target: T1, Cocaine esterase (Homo sapiens, UniProt O00748); assay: Inhibition of CES2 in human liver microsomes assessed as reduction in substrate hydrolysis using fluorescein diacetate as substrate preincubated for 3 mins followed by substrate addition and measured after 20 mins by fluorescence analysis
T1 sequence (O00748 whole entry): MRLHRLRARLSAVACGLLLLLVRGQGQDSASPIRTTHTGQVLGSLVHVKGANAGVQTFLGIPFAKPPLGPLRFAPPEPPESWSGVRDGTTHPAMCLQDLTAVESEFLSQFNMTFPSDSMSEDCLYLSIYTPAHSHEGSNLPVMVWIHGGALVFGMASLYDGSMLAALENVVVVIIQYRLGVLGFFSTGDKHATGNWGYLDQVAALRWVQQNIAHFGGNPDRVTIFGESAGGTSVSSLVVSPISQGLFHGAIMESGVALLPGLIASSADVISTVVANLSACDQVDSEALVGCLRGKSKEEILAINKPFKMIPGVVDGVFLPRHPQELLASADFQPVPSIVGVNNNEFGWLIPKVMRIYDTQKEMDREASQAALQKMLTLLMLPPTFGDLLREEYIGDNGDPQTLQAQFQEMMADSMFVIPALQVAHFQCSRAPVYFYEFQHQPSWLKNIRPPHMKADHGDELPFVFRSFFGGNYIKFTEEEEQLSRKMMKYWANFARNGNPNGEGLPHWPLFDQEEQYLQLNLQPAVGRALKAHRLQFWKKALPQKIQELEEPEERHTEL

3T3-L1 [1] = assay: Cytotoxicity against mouse 3T3-L1 cells assessed as reduction in cell viability at <40 uM after 48 hrs by CCK8 assay; assay type: cell-based; details: 3t3-l1, 48 h
Caco-2 = assay: Cytotoxicity against human Caco-2 cells assessed as reduction in cell viability at <40 uM after 48 hrs by CCK8 assay; assay type: cell-based; details: caco-2, 48 h
HepG2 = assay: Cytotoxicity against human HepG2 cells assessed as reduction in cell viability at <40 uM after 48 hrs by CCK8 assay; assay type: cell-based; details: hepg2, 48 h
3T3-L1 [2] = assay: Inhibition of adipogenesis in mouse 3T3-L1 cells assessed as reduction in lipid droplet formation at 40 uM incubated with compound for 72 hrs in presence of adipogenesis-inducing agent followed by culturing in normal medium in presence of compound for 48 hrs by Oil red O staining based analysis; assay type: functional, cell-based; details: time 120.0 hrs
3T3-L1 [3] = assay: Inhibition of adipogenesis in mouse 3T3-L1 cells assessed as reduction in lipid droplet formation at 10 uM incubated with compound for 72 hrs in presence of adipogenesis-inducing agent followed by culturing in normal medium in presence of compound for 48 hrs by Oil red O staining based analysis; assay type: functional, cell-based; details: time 120.0 hrs

Row | Structure (SMILES) | pIC50 (Cocaine esterase) | other results
1 | CCC1C(=O)N(c2ccccc2)N=C1c1ccccc1 (stereo unspecified) | 5.04 | 
2 | Cc1cccc(CC2C(=O)N(c3ccccc3)N=C2c2ccccc2)c1 (stereo unspecified) | 5.15 | 
3 | Cc1ccc(CC2C(=O)N(C3CCCCC3)N=C2c2ccc(C)cc2)cc1 (stereo unspecified) |  | Activity (3T3-L1 [1]): Non-Toxic; Activity (Caco-2): Non-Toxic; Activity (HepG2): Non-Toxic; inhibition (3T3-L1 [2]): Active; inhibition (3T3-L1 [3]): Active
4 | C=CCC1C(=O)N(c2ccccc2)N=C1c1ccccc1 (stereo unspecified) | 5.11 | 
5 | Cc1ccc(C2=NN(c3ccccc3)C(=O)C2Cc2ccccc2)cc1 (stereo unspecified) | 5.42 | 

The next lines start with results.

Row | pIC50 (Cocaine esterase) | Structure (SMILES) | other results
6 | 5.08 | O=C1C(Cc2ccc(Br)cc2)C(c2ccccc2)=NN1c1ccccc1 (stereo unspecified) | 
7 | 5.18 | COc1ccc(CC2C(=O)N(c3ccccc3)N=C2c2ccccc2)cc1 (stereo unspecified) | 
8 | 4.96 | O=C1C(Cc2ccccc2[N+](=O)[O-])C(c2ccccc2)=NN1c1ccccc1 (stereo unspecified) | 
9 | 5.29 | Cc1ccc(CC2C(=O)N(c3ccccc3)N=C2c2ccccc2)cc1 (stereo unspecified) | 
10 | 5.21 | O=C1C(Cc2ccccc2)C(c2ccc(Br)cc2)=NN1c1ccccc1 (stereo unspecified) | 
11 | 5.80 | CCCCCCCC/C=C\CCCCCCCC(=O)OCC(O)COP(=O)(O)O (stereo unspecified) | 
12 | 5.04 | O=C1C(Cc2ccccc2)C(c2ccccc2)=NN1C1CCCCC1 (stereo unspecified) | 
